Data published in patent US8314143B2, “Synthetic flavonoids and pharmaceutical compositions and therapeutic methods of treatment of HIV infection and other pathologies” (Florida A&M University, priority 2006, dated 2012).
Values joined by “and” are separate entries in the source; they are usually repeats but may differ in a detail not shown here. Identical values can stand only once.

Key:
PC-3 cells = assay: Cytoxicity on PC-3 cells (drug inhibition, cell count); type: cell-based; conditions: for % Inhibition Mean / Cells (×10^4) Mean / % Inhibition / Cells (×10^4): Exp. Nov. 11 to Nov. 17, 2005; for % Inhibition / Cells (×10^4): single replicates
Excerpt: The purified and identified analogs were subjected to in vitro biological testing.

MCF-7 cells = assay: Cytoxicity on MCF-7 cells (drug inhibition, cell count); type: cell-based; parameters: Drug Inhibition on MCF-7 Cells / MCF-7 Mean (drug inhibition) / Drug inhibition on MCF-7 Cells Mean: unit not given here; conditions: MCF-7 cells; for MCF-7 Mean (drug inhibition): Table 13 summary part; for Drug inhibition on MCF-7 Cells Mean: Table 14 summary part
Excerpt: The purified and identified analogs were subjected to in vitro biological testing. […] These three congeners were further evaluated in H9 and PC3 cells. AZT was employed as a positive control in all of these experiments.

[1] = 1 μg/ml, Exp. Nov. 14 to Nov. 18, 2005
[2] = 1 μg/ml, Exp. Sep. 08 to Sep. 12, 2005
[3] = 1 μg/ml, Exp. Sep. 12 to Sep. 16, 2005
[4] = 1 μg/ml, Exp. Sep. 26 to Sep. 30, 2005
[5] = 1 μg/ml, single replicates, Exp. Nov. 14 to Nov. 18, 2005
[6] = 1 μg/ml, single replicates, Exp. Sep. 08 to Sep. 12, 2005
[7] = 1 μg/ml, single replicates, Exp. Sep. 12 to Sep. 16, 2005
[8] = 1 μg/ml, single replicates, Exp. Sep. 26 to Sep. 30, 2005
[9] = 5 μg/ml, Exp. Nov. 14 to Nov. 18, 2005
[10] = 5 μg/ml, Exp. Sep. 08 to Sep. 12, 2005
[11] = 5 μg/ml, Exp. Sep. 12 to Sep. 16, 2005
[12] = 5 μg/ml, Exp. Sep. 26 to Sep. 30, 2005
[13] = 5 μg/ml, single replicates, Exp. Nov. 14 to Nov. 18, 2005
[14] = 5 μg/ml, single replicates, Exp. Sep. 08 to Sep. 12, 2005

Q: Which results are given for Cc1cn([C@H]2C[C@H](N=[N+]=[N-])[C@@H](CO)O2)c(=O)[nH]c1=O [AZT, reference compound]?
A: Drug Inhibition on PC-3 cells (PC-3 cells; 1 μg/ml, Table 7): 17.27; Drug Inhibition on PC-3 cells (PC-3 cells; 1 μg/ml, Table 10): 13.69; % Inhibition Mean (PC-3 cells; 1 μg/ml): 13.69%; Cells (×10^4) Mean (PC-3 cells; 1 μg/ml): 84.58 ×10^4; % Inhibition (PC-3 cells; 1 μg/ml): 14.29% and 12.76% and 14.03%; Cells (×10^4) (PC-3 cells; 1 μg/ml): 84.0 ×10^4 and 85.5 ×10^4 and 84.3 ×10^4; Drug Inhibition on PC-3 cells (PC-3 cells; 5 μg/ml, Table 7): 43.23; Cells (×10^4) Mean (PC-3 cells; 5 μg/ml): 17.33 ×10^4; Cells (×10^4) (PC-3 cells; 5 μg/ml): 70.5 ×10^4 and 72.3 ×10^4 and 71.3 ×10^4; Drug Inhibition on PC-3 cells (PC-3 cells; 10 μg/ml, Table 7): 59.67; Drug Inhibition on PC-3 cells (PC-3 cells; 10 μg/ml, Table 10): 37.16; % Inhibition Mean (PC-3 cells; 10 μg/ml): 37.16%; Cells (×10^4) Mean (PC-3 cells; 10 μg/ml): 61.58 ×10^4; % Inhibition (PC-3 cells; 10 μg/ml): 37.24% and 37.50% and 36.73%; Cells (×10^4) (PC-3 cells; 10 μg/ml): 61.5 ×10^4 and 61.3 ×10^4 and 62.0 ×10^4; Drug Inhibition on MCF-7 Cells (MCF-7 cells; 1 μg/ml, Table 8 summary): 6.92; Drug Inhibition on MCF-7 Cells (MCF-7 cells; 1 μg/ml, Table 12 summary): 26.55; MCF-7 Mean (drug inhibition) (MCF-7 cells; 1 μg/ml): 25.77; Drug inhibition on MCF-7 Cells Mean (MCF-7 cells; 1 μg/ml): 21.53; % Inhibition Mean (MCF-7 cells; [1]): 6.92%; Cells (×10^4) Mean (MCF-7 cells; [1]): 53.83 ×10^4; % Inhibition Mean (MCF-7 cells; [2]): 25.77%; Cells (×10^4) Mean (MCF-7 cells; [2]): 52.33 ×10^4; % Inhibition Mean (MCF-7 cells; [3]): 21.53%; Cells (x10^4) Mean (MCF-7 cells; [3]): 45.25 x10^4; % Inhibition Mean (MCF-7 cells; [4]): 26.55%; Cells (×10^4) Mean (MCF-7 cells; [4]): 36.42 ×10^4; % Inhibition (MCF-7 cells; [5]): 8.36% and 4.47% and 7.93%; Cells (×10^4) (MCF-7 cells; [5]): 53.0 ×10^4 and 55.3 ×10^4 and 53.3 ×10^4; % Inhibition (MCF-7 cells; [6]): 27.66% and 23.76% and 25.89%; Cells (×10^4) (MCF-7 cells; [6]): 51.0 ×10^4 and 53.8 ×10^4 and 52.3 ×10^4; % Inhibition (MCF-7 cells; [7]): 22.83% and 20.23% and 21.53%; Cells (x10^4) (MCF-7 cells; [7]): 44.5 x10^4 and 46.0 x10^4 and 45.3 x10^4; % Inhibition (MCF-7 cells; [8]): 28.40% and 25.88% and 25.38%; Cells (×10^4) (MCF-7 cells; [8]): 35.5 ×10^4 and 36.8 ×10^4 and 37.0 ×10^4; Drug Inhibition on MCF-7 Cells (MCF-7 cells; 5 μg/ml, Table 8 summary): 38.62; Drug Inhibition on MCF-7 Cells (MCF-7 cells; 5 μg/ml, Table 12 summary): 46.86; MCF-7 Mean (drug inhibition) (MCF-7 cells; 5 μg/ml): 39.36; Drug inhibition on MCF-7 Cells Mean (MCF-7 cells; 5 μg/ml): 50.43; % Inhibition Mean (MCF-7 cells; [9]): 38.62%; Cells (×10^4) Mean (MCF-7 cells; [9]): 35.50 ×10^4; % Inhibition Mean (MCF-7 cells; [10]): 39.36%; Cells (×10^4) Mean (MCF-7 cells; [10]): 42.75 ×10^4; % Inhibition Mean (MCF-7 cells; [11]): 50.43%; Cells (x10^4) Mean (MCF-7 cells; [11]): 28.58 x10^4; % Inhibition Mean (MCF-7 cells; [12]): 46.86%; Cells (×10^4) Mean (MCF-7 cells; [12]): 26.35 ×10^4; % Inhibition (MCF-7 cells; [13]): 39.91% and 40.35% and 35.59%; Cells (×10^4) (MCF-7 cells; [13]): 34.8 ×10^4 and 34.5 ×10^4 and 37.3 ×10^4; % Inhibition (MCF-7 cells; [14]): 40.07% and 37.94%; Cells (×10^4) (MCF-7 cells; [14]): 42.3 ×10^4 (2×) and 43.8 ×10^4
